Data taken from patent US20120309716A1, “Motor Function Improver” (Kao Corporation, priority 2010, published 2012).

Legend:
mice [1] = assay: Swimming endurance (limit swimming time in flowing water pool); format: in vivo, mouse; conditions: 0.25% sphingomyelin diet and exercise, five weeks after beginning of administration, flow rate 7 L/min
Source text: (§1) After preliminary rearing for one week, nine-week old BALE/c male mice (Charles River Laboratories Japan Inc.) were classified into three groups (a Cont group, an Ex group, and an SPM group) (eight mice in each group) such that each group had the same body weight and swimming endurance (determined by measuring a limit swimming time by using a flowing water pool for mice (Kyodai Matsumoto type flowing water tank for measuring an amount of exercise: length×width×depth=90×45×45 cm, water depth: 38 cm, water temperature: 34° C. (Matsumoto, J Appl Physiol. 81: 1843-1849, 1996)) by the below-mentioned method).
After grouping, the mice of the Cont group and the Ex group were fed with a control feed (10% lipid, 20% casein, 55.5% potato starch, 8.1% cellulose, 0.2% methionine, 2.2% vitamin (product name: Vitamin mix AIN-76, Oriental Bioservice, Inc.), and 4% mineral (product name: Mineral mix AIN-76, Oriental Bioservice, Inc.)), and the mice of the SPM group were fed with a test feed containing the sphingomyelin prepared in Production Example 1 (10% lipid, 20% casein, 55.25% potato starch, 8.1% cellulose, 0.2% methionine, 2.2% vitamin, 4% mineral, and 0.25% sphingomyelin) each for 13 weeks.
During the feeding period, the limit swimming time was measured for the mice of the Ex group and the SPM group using the flowing water pool for mice once a week. […]

[2] = system: isolated soleus muscle and extensor digitorum longus muscle; assay: Muscle strength of isolated soleus and extensor digitorum longus muscle after 13 weeks of rearing with exercise; format: in vivo, mouse; conditions: mice, 0.25% sphingomyelin diet and exercise, electrical stimulation 40 Hz, 330 ms, 10V
Source text: as §1, with “method). […] After 13 weeks of rearing, the mice were subjected to anatomy, muscle strength of isolated soleus muscle and extensor digitorum longus muscle was measured. Muscle strength of the isolated muscle was measured according to a method by Cannon et al. (Biomed Sci Instrum, 2005). […] Electrical stimulation of 40 Hz, 330 ms, and 10V was applied by using two platinum electrodes, and a signal obtained from the transducer was determined as muscle strength (g/mg muscle).” for “method).”

isolated soleus muscle = assay: Suppression of muscle strength deterioration after tail suspension treatment (isolated soleus muscle); format: in vivo, mouse; conditions: mice, 0.25% sphingomyelin diet for two weeks, then seven days of tail suspension; SPM group vs Cont group
Source text: After preliminary rearing for one week, BALB/c male mice (nine-week old) were classified into three groups (a Normal group, a Cont group, and an SPM group) based on their weights (n=8 in each group). After grouping, the mice of the Normal group and the Cont group were fed with a control feed (10% lipid, 20% casein, 55.5% potato starch, 8.1% cellulose, 0.2% methionine, 2.2% vitamin, and 4% mineral), and the mice of the SPM group were fed with a test feed containing the sphingomyelin prepared in Production Example 1 (10% lipid, 20% casein, 55.25% potato starch, 8.1% cellulose, 0.2% methionine, 2.2% vitamin, 4% mineral, and 0.25% sphingomyelin) each for two weeks. The mice were fed with the test feed for two weeks, and the mice of the Cont group and the SPM group were subject to a tail suspension treatment to exclude a gravity load on their hindlimb muscles (such as soleus muscle). […] The mice of the Normal group were not subjected to the tail suspension treatment. After seven days of the tail suspension treatment, the mice were subjected to anatomy, and muscle strength of the isolated soleus muscle was measured. The muscle strength of the isolated muscle was measured in the same way as in Test Example 1.

mice [3] = assay: Respiratory gas analysis (energy consumption and lipid combustion); format: in vivo, mouse; conditions: average in 24 hours after nine weeks of rearing, 0.25% sphingomyelin test feed
Source text: After preliminary rearing for one week, nine-week old BALB/c mice (male: Oriental Bioservice, Inc.) were classified into two groups (eight mice in each group) such that each group had the same body weight.
(§2) After that, the mice were fed with a control feed (10% lipid, 20% casein, 55.5% potato starch, 8.1% cellulose, 0.2% methionine, 2.2% vitamin (product name: Vitamin mix AIN-76, Oriental Bioservice, Inc.), and 4% mineral (product name: Mineral mix AIN-76, Oriental Bioservice, Inc.)) or a test feed containing the sphingomyelin (10% lipid, 20% casein, […], 8.1% cellulose, 0.2% methionine, 2.2% vitamin, 4% mineral, and 0.25% sphingomyelin) each for nine weeks, and a respiratory gas analysis was carried out at the tenth week.
The mice were transferred to a chamber for respiratory gas analysis and habituated to the environment for 48 hours, and oxygen consumption level and respiratory quotient of each mouse were measured over 24 hours using Arco-2000 system (ARCOSYSTEM Inc.). […] From the oxygen consumption level and respiratory quotient, the lipid combustion level was calculated by an equation of Peronnet (Peronnet F, and Massicotte D (1991) Can J Sport Sci 16:23-29.).

PGC-1α = assay: Expression of gastrocnemius muscle mitochondrial function-related gene (quantitative PCR); format: in vivo; conditions: mouse gastrocnemius muscle after 13 weeks of rearing, 0.25% sphingomyelin test feed; control group 1.17 ± 0.10; p < 0.05
Source text: as §2
After 13 weeks of rearing, the gastrocnemius muscle of a mouse of each group was collected, and RNA samples were obtained using RNeasy Fibrous Tissue Mini Kit (Qiagen). Each RNA sample was quantified, and a reverse transcription reaction was carried out in a reaction solution (1×PCR buffer II (Applied Biosystems), 5 mM MgCl2, 1 mM dNTP mix, 2.5 μM Oligo d [T]18 (New England Biolabs) and 1 U/ml RNase inhibitor (TAKARA BIO INC.) for 125 ng of RNA per reaction, to thereby obtain cDNA. The reaction was carried out under conditions of 42° C. and 10 min, 52° C. and 30 min, and 99° C. and 5 min.
Quantitative PCR was carried out using the thus obtained cDNA as a template by ABI PRISM 7700 Sequence Detector (Applied Biosystems) The results were corrected based on the expression amount of 36B4 mRNA and represented as relative mRNA expression amounts. […]

sphingomyelin
swimming endurance (limit swimming time) (mice [1]): significant improvement in endurance | muscle strength of the extensor digitorum longus muscle [2]: significantly higher values | muscle strength of the soleus muscle [2]: significantly higher values | muscle strength of the isolated soleus muscle (isolated soleus muscle): significantly higher value | Lipid combustion level (mice [3]; calculated by equation of Peronnet, control group 5.4 ± 0.7, p < 0.05): 7.5 ± 0.7 mg/kg/min | Oxygen consumption level (mice [3]; control group 55.0 ± 1.0, p < 0.05): 58.2 ± 0.8 mL/min/kg | PGC-1α relative mRNA expression amount (corrected based on 36B4 mRNA) (PGC-1α): 1.50 ± 0.15
